Results published in patent US6489440B1, “Cyclic compounds” (Basilea Pharmaceutica AG, priority 1998, dated 2002).
Numbered stars: 1 amine (or outer) side, 2 acyl side, 3 side chain; on linkers, the order of the positions; unused ones are H or OH. Bridge positions count the residues as written; N and C are the ends. Square brackets hold non-standard residues; d marks the D form. Peptide text beside a SMILES is read from it. ξ: configuration not given here. X7 = CCCCCCCCCCCCC(C)[C@H](CC(=O)[*:1])O[*:2]; X2 = NC(=O)CC(O)C(N[*:1])C(=O)[*:2]; X1 = O=C(C1C(O)CCN1[*:1])[*:2]; ξY = NC(Cc1ccc(O)cc1)C(=O)O; ξHyp = O=C(O)C1CC(O)CN1; ξOrn = NCCCC(N)C(=O)O; ξT = CC(O)C(N)C(=O)O; ξV = CC(C)C(N)C(=O)O; ξA = CC(N)C(=O)O

How the values were obtained:
Solubility = conditions: solvents in which soluble
[1] = Acute toxicity on administration to mice for 4 weeks; type: in vivo; conditions: 5 mg/kg and 30 mg/kg

For `CCCCCCCCCCCCC(C)[C@@H]1CC(=O)NC(C(C)O)C(=O)NC(C)C(=O)NC(Cc2ccc(O)cc2)C(=O)NC(C(C)C)C(=O)N2CC(O)CC2C(=O)NC(C(C)O)C(=O)NC(C(C)O)C(=O)N2CCC(O)C2C(=O)NC(C(O)CC(N)=O)C(=O)NCC(=O)NC(C(C)O)C(=O)NC(CCCN)C(=O)O1` (some centres unmarked) [Aerothricin 1] ([ξT][ξA][ξY][ξV][ξHyp][ξT][ξT][X1][X2]G[ξT][ξOrn]; linker N-C via X7), the Solubility (Solubility) was “Soluble: water, methanol, dimethylsulfoxide” and the acute toxicity [1] was “no acute toxicity”.
